Experimental data taken from patent publication US8680094B2, “1, 4-benzoxazine compounds and derivatives thereof as therapeutic drugs for the treatment of neurodegenerative conditions” (Board of Regents, The University of Texas System, priority 2008, dated 2014).
Values joined by “and” are separate entries in the source; they are usually repeats but may differ in a detail not shown here. Equal entries are not always repeated.

Key:
[1] = system: flies expressing human APP695; assay: APP695-induced toxicity in Drosophila (survival of flies); format: in vivo
Method: Survival of flies expressing human APP695 compared to controls. […] Bars indicate mean±SEM. FIG. 8 is an image showing HSB-13 protects HT-22 cells against HCA-induced toxicity. HT-22 cells were treated with no additives (Control), 2 mM HCA, or 2 mM HCA+25 μM HSB-13. The appearance of the cultures at 24 hours after treatment is shown.
Expression of human APP695 was induced ubiquitously by crossing transgenic flies carrying a UAS-APP695 construct (Fossgreen et al., 1998) with flies containing an actin-GAL4 promoter using the UAS/GAL4 system (Brand and Perrimon, 1993). Flies were raised at 25° C. in the dark on 10% yeast paste containing different concentrations of HSB-13 (0, 2.5, 5, and 50 μM). The percentage of surviving APP695-expressing progeny was determined by comparing them to control progeny carrying no promoter construct obtained in the same cross and therefore raised under identical conditions as described previously (Greeve et al., 2004).

[2] = system: primary cortical neurons; assay: HCA-induced neurotoxicity in primary cortical neurons; format: cell-based, rat

Nc1ccc2c(c1)NC(=O)/C(=C/c1cc(Br)c(O)c(Br)c1)O2 [HSB-13, (Z)-6-amino-2-(3,′5′-dibromo-4′-hydrozybenzylidene)-2H-benzo[b][1,4]oxazin-3(4H)-one]
survival rate compared to untreated flies ([1]; food containing HSB-13, all p-values<0.05): approximately 10 times
survival rate of APP-expressing flies compared to equally treated control flies ([1]; raised on food containing HSB-13, printed as 65% at 50 μM to 44% at 50 μM, untreated about 5%): 65% and 44%
protection against HCA-induced neurotoxicity [2]: protects
